Source: US6929811B2, “Monoamine oxidase (MAO) inhibitors and uses thereof” (priority 1998, dated 2005)

How the values were obtained:
[1] = tested on: MPTP induced toxicity; details: mice, cited from earlier work; for effect on dopamine levels: MPTP
[2] = tested on: MAO; experiment: Total MAO activity, spectrophotometric assay in liver homogenate; type: biochemical, cow or rat; details: for percent inhibition of MAO activity: at maximal or saturating inhibition concentrations, tyramine substrate, 37 degrees Centigrade; for maximal inhibition concentration: dissolved in distilled water, concentration curve at reaction time of one hour; for MAO inhibition over the reaction time course: saturating concentrations, over 60 minutes of MAO activity
Protocol: The MAO activities of the compounds and substances were determined using standard reaction conditions as described in Halt, A., et al., Analytical Biochemistry, 244:384-392 (1997).
(§1) Liver samples from cow or rat were obtained immediately after sacrifice. Liver was homogenized in a Polytron mechanical homogenizer in a ratio of 1 gram of liver to 1 ml of potassium phosphate buffer (0.2 M at pH of 7.6). Large membranes were removed by low speed centrifugation at 1000×g for 15 minutes. The supernatant was removed from the pellet and used immediately for MAO activity assays or stored at 0 degrees Centigrade. Protein levels were determined in the liver homogenate by the Bradford protein reaction.
(§2) The standard reaction conditions were developed as a modification of the spectrophotometric assay using standard conditions (Halt, A., et al., Analytical Biochemistry, 244:384-392 (1997)). Total MAO activity was determined by incubating the liver preparations for 30 minutes at 37 degrees Centigrade with a 1/1 dilution of a test fraction (compound or substance to be tested dissolved in distilled water) or control condition (water alone). This incubation allowed the test compound or substance to interact with the enzyme under physiological conditions. The final tissue concentration in the reaction mixture was 3.5 mg per 100 ml.
Following the incubation with test compounds/substances or control, the MAO reactions were initiated and the reactions were incubated at 37 degrees Centigrade. The reaction was initiated by mixing 150 μl of preincubated tissue with 150 μl of chromogenic solution (containing 10 mM vanillic acid, 5 mM 4-amino antipyrene, 20 units/ml of peroxidase in 0.2 M potassium phosphate buffer final concentration pH 7.6), 600 μl of amine substrate (tyramine 500 micromolar), and 100 μl of distilled water (1 ml reaction volume). The standard reaction time was for 1 hour, but reaction times varied from 1 minute to 3 hours to evaluate the time course of the reaction in the presence or absence of test substance or control. The reactions were terminated by the addition of 30 μl of a stop solution of phenelzine (10 mM). The stopped reactions were stored on ice and placed at room temperature for reading in a spectrophotometer at a wavelength of 498 nm. The resulting values were analyzed to determine the amount of reaction product produced by MAO activity. This assay was reliable and simple to perform. A standard curve using hydrogen peroxide for enzyme activity was prepared for each experiment to determine the activity of the enzyme.
(§3) Each of the compounds and substances of the present invention were evaluated by initially determining a concentration curve at a reaction time of one hour. After determining the concentration curves of each compound or substance on MAO activity, a reaction time course in the presence or absence of test compound or substance was determined and time course curves were generated. Following these experiments, the effect of each test compound or substance was evaluated on MAO A and MAO B activity by the same reaction studies as described above for the total enzyme activity.

[3] = tested on: MAO A; experiment: Selective MAO A assay in liver homogenate, other isoform blocked by selective inhibitor; type: biochemical, cow or rat; details: saturating concentration; significantly different from control
Protocol: as §1
as §2, with “This incubation allowed the test compound or substance to interact with the enzyme under physiological conditions. The final tissue concentration in the reaction mixture was 3.5 mg per 100 ml.” left out
(§4) Following the incubation with test compounds/substances or control, the MAO reactions were initiated and the reactions were incubated at 37 degrees Centigrade. […] The stopped reactions were stored on ice and placed at room temperature for reading in a spectrophotometer at a wavelength of 498 nm. The resulting values were analyzed to determine the amount of reaction product produced by MAO activity. […]
(§5) Selective assays of MAO A and MAO B isoforms were determined by using selective inhibitors of each of these enzymes. […]
as §3

[4] = tested on: MAO B; experiment: Selective MAO B assay in liver homogenate, other isoform blocked by selective inhibitor; type: biochemical, cow or rat; details: saturating concentration; significantly different from control
Protocol: as §1
as §2, with “This incubation allowed the test compound or substance to interact with the enzyme under physiological conditions. The final tissue concentration in the reaction mixture was 3.5 mg per 100 ml.” left out
as §4, §5, §3

SMILES | effect on dopamine levels [1] | effect on decrease in dopamine metabolite levels induced by MPTP [1] | percent inhibition of MAO activity [2] | maximal inhibition concentration [2] [mg/mL] | MAO inhibition over the reaction time course [2] | inhibition of MAO A activity [3] | inhibition of MAO B activity [4]
c1ccc(-c2ccncc2)cc1 [4-phenylpyridine] | no significant effect on dopamine levels | prevented the decrease in dopamine metabolite levels |  |  |  |  | 
c1cncc([C@@H]2CCCCN2)c1 [anabasine, Anabasine] |  |  | 10-13% | 0.2 | effective at inhibiting the enzyme at all time points in the reaction | inhibit both MAO A and MAO B activity | inhibit both MAO A and MAO B activity
C1=CCC(c2cccnc2)NC1 (stereo not shown) [anatabine, Anatabine] |  |  | approximately 60% | 0.1 | effective at inhibiting the enzyme at all time points in the reaction | equally effective in inhibiting both MAO A and MAO B activities | equally effective in inhibiting both MAO A and MAO B activities
CN1CCCC1c1cccnc1 (stereo not shown) [nicotine] | no significant effect on dopamine levels | prevented the decrease in dopamine metabolite levels |  |  |  |  | 
c1cncc([C@@H]2CCCN2)c1 [nornicotine, Nornicotine] |  |  | 80 to 95% | 0.08 | effective at inhibiting the enzyme at all time points in the reaction | equally effective in inhibiting both MAO A and MAO B activities | equally effective in inhibiting both MAO A and MAO B activities
